These results are taken from patent US20070027201A1 (Wyeth, priority 2005, published 2007).

As usually defined, the IC50 is the concentration at which inhibition is half-maximal.

In the experiment the target is T1, progesterone receptor (Homo sapiens, UniProt P06401).
T1 sequence (P06401 1-933): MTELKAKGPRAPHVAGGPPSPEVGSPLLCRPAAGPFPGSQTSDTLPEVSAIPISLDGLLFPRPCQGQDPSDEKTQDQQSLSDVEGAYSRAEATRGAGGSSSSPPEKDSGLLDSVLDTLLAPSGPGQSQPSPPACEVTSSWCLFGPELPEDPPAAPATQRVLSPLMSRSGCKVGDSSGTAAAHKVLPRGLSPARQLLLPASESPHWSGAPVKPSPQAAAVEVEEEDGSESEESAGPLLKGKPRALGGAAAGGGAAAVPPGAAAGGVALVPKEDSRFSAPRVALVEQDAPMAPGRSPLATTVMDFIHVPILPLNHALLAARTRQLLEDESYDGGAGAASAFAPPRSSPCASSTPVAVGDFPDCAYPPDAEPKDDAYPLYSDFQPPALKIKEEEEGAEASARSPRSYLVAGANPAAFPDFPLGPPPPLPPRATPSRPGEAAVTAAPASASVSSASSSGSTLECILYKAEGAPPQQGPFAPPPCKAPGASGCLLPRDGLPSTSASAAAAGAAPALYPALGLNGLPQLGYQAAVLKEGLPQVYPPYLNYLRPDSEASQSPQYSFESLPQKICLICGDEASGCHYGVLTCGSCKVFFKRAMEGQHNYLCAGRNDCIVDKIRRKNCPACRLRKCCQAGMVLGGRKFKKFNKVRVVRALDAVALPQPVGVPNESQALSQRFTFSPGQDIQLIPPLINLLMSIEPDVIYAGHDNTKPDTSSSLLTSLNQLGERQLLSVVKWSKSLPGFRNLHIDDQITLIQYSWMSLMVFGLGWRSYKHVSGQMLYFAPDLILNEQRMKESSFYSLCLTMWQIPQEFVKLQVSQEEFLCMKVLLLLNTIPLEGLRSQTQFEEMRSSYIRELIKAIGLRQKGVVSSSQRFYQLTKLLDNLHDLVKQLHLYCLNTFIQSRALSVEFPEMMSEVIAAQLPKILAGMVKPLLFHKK
Put plainly: T47D alkaline phosphatase assay for progesterone receptor modulator (antagonist) activity. It is filed as cell-based. Set-up: endogenous in cells; host or cells: T47D cells. As to conditions: T47D cells, antagonist mode in the presence of 1 nM progesterone, 24 hours. The procedure: An assay was performed to identify compounds having progesterone receptor modulator activity. This assay identifies progestins or antiprogestins by determining a compound's effect on alkaline phosphatase activity in T47D cells.
Culture medium: DMEM:F12 (1:1) (GIBCO, BRL) supplemented with 5% (v/v) charcoal stripped fetal bovine serum (not heat-inactivated), 100 U/mL penicillin, 100 μg/mL streptomycin, and 2 mM the GlutaMax® reagent (GIBCO, BRL).
Alkaline phosphatase assay buffer: • I. 0.1M Tris-HCl, pH 9.8, containing 0.2% the Triton™ X-100 reagent • II. 0.1M Tris-HCl, pH 9.8, containing 4 mM p-nitrophenyl phosphate (Sigma).
Frozen T47D cells are thawed in a 37° C. water bath and diluted to 280,000 cells/mL in culture medium. To each well in a 96-well plate (Falcon, Becton Dickinson Labware), 180 μL of diluted cell suspension is added.
Twenty μL of reference or test compounds diluted in the culture medium is then added to each well. When testing for progestin antagonist activity, reference antiprogestins or test compounds are added in the presence of 1 nM progesterone. The cells are incubated at 37° C. in a 5% CO2/humidified atmosphere for 24 hours.
For high throughput screening, one concentration of each compound will be tested at 0.3 μg/mL. Based on an average molecular weight of 300 g/mol for the compounds in the library, the concentration is approximately 1 μM. Subsequently, active compounds will be tested in dose response assays to determine EC50 and IC50.
At the end of treatment, the medium is removed from the plate. Fifty μL of assay buffer I is added to each well. The plates are shaken in a titer plate shaker for 15 minutes. Then 150 μL of assay buffer II is added to each well. Optical density measurements are taken at 5 minute intervals for 30 minutes at a test wavelength of 405 nm.
Analysis of dose-response data. For reference and test compounds, a dose response curve is generated for dose (x-axis) vs. the rate of enzyme reaction (slope) (y-axis). Square root-transformed data are used for analysis of variance and nonlinear dose response curve fitting for both agonist and antagonist modes. Huber weighting is used to down-weight the effects of outliers. EC50 or IC50 values are calculated from the retransformed values. The JMP® software (SAS Institute, Inc.) is used for both one-way analysis of variance and non-linear dose response analysis in both single dose and dose response studies.
Progesterone and trimegestone are reference progestins and RU486 is the reference antiprogestin. All reference compounds are run in full dose response curves and the EC50 and IC50 values are calculated.
In the table provided above, the IC50 values show the relative progesterone receptor antagonist activity in this assay. Lower numbers are indicative of higher potency, i.e., greater PR antagonist activity. Further, the assay has a standard deviation of about ±6.
As to `Cn1c(C#N)ccc1-c1ccc(N)cc1` [Example 1, 5-(4-aminophenyl)-1-methyl-1H-pyrrole-2-carbonitrile], the IC50 was 109 nM.
On to `Cn1c(C#N)ccc1-c1ccc(N)c(F)c1` [Example 2, 5-(4-amino-3-fluorophenyl)-1-methyl-1H-pyrrole-2-carbonitrile], for which the half-inhibitory concentration (IC50) is 65.4 nM.
On to `Cn1c(C#N)ccc1-c1ccc(NC(=O)c2ccco2)cc1` [Example 3, N-[4-(5-cyano-1-methyl-1H-pyrrol-2-yl)phenyl]-2-furamide], for which the half-inhibitory concentration (IC50) came out at 126 nM.
As for `CC(C)CC(=O)Nc1ccc(-c2ccc(C#N)n2C)cc1` [Example 4, N-[4-(5-cyano-1-methyl-1H-pyrrol-2-yl)phenyl]-3-methylbutanamide], the IC50 turned out to be 304 nM.
For `CC(C)C(=O)Nc1ccc(-c2ccc(C#N)n2C)cc1` [Example 5, N-[4-(5-cyano-1-methyl-1H-pyrrol-2-yl)phenyl]-2-methylpropanamide], the IC50 amounted to 168 nM.
In the case of `CCC(=O)Nc1ccc(-c2ccc(C#N)n2C)cc1` [Example 6, N-[4-(5-cyano-1-methyl-1H-pyrrol-2-yl)phenyl]propanamide], the half-maximal inhibitory concentration (IC50) turned out to be 76.7 nM.
The figure for `CCCC(=O)Nc1ccc(-c2ccc(C#N)n2C)cc1` [Example 7, N-[4-(5-cyano-1-methyl-1H-pyrrol-2-yl)phenyl]butanamide] is 78.8 nM; for `CC(=O)Nc1ccc(-c2ccc(C#N)n2C)cc1` [Example 8, N-[4-(5-cyano-1-methyl-1H-pyrrol-2-yl)phenyl]acetamide] it is roughly 300 nM; for `Cn1c(C#N)ccc1-c1ccc(NC(=O)c2ccccc2)cc1` [Example 9, N-[4-(5-cyano-1-methyl-1H-pyrrol-2-yl)phenyl]benzamide] it is 90.5 nM.
Regarding `Cn1c(C#N)ccc1-c1ccc(NC(=O)C2CCC2)cc1` [Example 10, N-[4-(5-cyano-1-methyl-1H-pyrrol-2-yl)phenyl]cyclobutane-carboxamide], the IC50 is 83.9 nM.
Turning to `Cn1c(C#N)ccc1-c1ccc(NC(=O)C2CCCCC2)cc1` [Example 11, N-[4-(5-cyano-1-methyl-1H-pyrrol-2-yl)phenyl]cyclohexane-carboxamide], the IC50 amounted to 325 nM.
For the compound `C=C(C)C(=O)Nc1ccc(-c2ccc(C#N)n2C)cc1` [Example 12, N-[4-(5-cyano-1-methyl-1H-pyrrol-2-yl)phenyl]-2-methylacrylamide], the IC50 came out at 97.2 nM.
With `CCOC(=O)Nc1ccc(-c2ccc(C#N)n2C)cc1` [Example 13, Ethyl[4-(5-cyano-1-methyl-1H-pyrrol-2-yl)phenyl]carbamate] the figure was 266 nM; with `CC(C)COC(=O)Nc1ccc(-c2ccc(C#N)n2C)cc1` [Example 14, Isobutyl[4-(5-cyano-1-methyl-1H-pyrrol-2-yl)phenyl]carbamate], 378 nM.
For `Cn1c(C#N)ccc1-c1ccc(NC(=O)Nc2ccc(-c3ccc(C#N)n3C)cc2)cc1` [Example 15, N,N′-bis[4-(5-cyano-1-methyl-1H-pyrrol-2-yl)phenyl]urea], the 50% inhibitory concentration (IC50) turned out to be 642 nM.
On to `CCCS(=O)(=O)Nc1ccc(-c2ccc(C#N)n2C)cc1` [Example 16, N-[4-(5-cyano-1-methyl-1H-pyrrol-2-yl)phenyl]propane-1-sulfonamide], for which the IC50 was 9.8 nM.
In the case of `Cn1c(C#N)ccc1-c1ccc(N(S(C)(=O)=O)S(C)(=O)=O)cc1` [Example 17, N-[4-(5-cyano-1-methyl-1H-pyrrol-2-yl)phenyl]-N-(methylsulfonyl)methane sulfonamide], the IC50 was roughly 300 nM.
With `CCCCS(=O)(=O)Nc1ccc(-c2ccc(C#N)n2C)cc1` [Example 18, N-[4-(5-cyano-1-methyl-1H-pyrrol-2-yl)phenyl]butane-1-sulfonamide] the figure was roughly 300 nM.
Consider `Cn1c(C#N)ccc1-c1ccc(NS(=O)(=O)CC(F)(F)F)cc1` [Example 19, N-[4-(5-cyano-1-methyl-1H-pyrrol-2-yl)phenyl]-2,2,2-trifluoroethanesulfonamide], for which the IC50 amounted to 58.4 nM.
As for `CC(C)c1ccc(S(=O)(=O)Nc2ccc(-c3ccc(C#N)n3C)cc2)cc1` [Example 20, N-[4-(5-cyano-1-methyl-1H-pyrrol-2-yl)phenyl]-4-isopropylbenzenesulfonamide], the IC50 was roughly 3000 nM.
On to `Cn1c(C#N)ccc1-c1ccc(NS(=O)(=O)c2ccccc2)cc1` [Example 21, N-[4-(5-cyano-1-methyl-1H-pyrrol-2-yl)phenyl]benzenesulfonamide], for which the IC50 is roughly 30 nM.
Consider `Cc1ccc(S(=O)(=O)Nc2ccc(-c3ccc(C#N)n3C)cc2)cc1` [Example 22, N-[4-(5-cyano-1-methyl-1H-pyrrol-2-yl)phenyl]-4-methylbenzenesulfonamide], for which the IC50 was roughly 3000 nM.
For the compound `CC(C)S(=O)(=O)Nc1ccc(-c2ccc(C#N)n2C)cc1` [Example 23, N-[4-(5-cyano-1-methyl-1H-pyrrol-2-yl)phenyl]propane-2-sulfonamide], the IC50 was 1.5 nM.
With `CCS(=O)(=O)Nc1ccc(-c2ccc(C#N)n2C)cc1` [Example 24, N-[4-(5-cyano-1-methyl-1H-pyrrol-2-yl)phenyl]ethanesulfonamide] the figure was 10 nM; with `Cn1c(C#N)ccc1-c1ccc(NS(C)(=O)=O)cc1` [Example 25, N-[4-(5-cyano-1-methyl-1H-pyrrol-2-yl)phenyl]methanesulfonamide], 8.2 nM; with `Cn1c(C#N)ccc1-c1ccc(NS(C)(=O)=O)c(F)c1` [Example 26, N-[4-(5-cyano-1-methyl-1H-pyrrol-2-yl)-2-fluorophenyl]methane-sulfonamide], 28.9 nM.
Consider `CCS(=O)(=O)Nc1ccc(-c2ccc(C#N)n2C)cc1F` [Example 27, N-[4-(5-cyano-1-methyl-1H-pyrrol-2-yl)-2-fluorophenyl]ethane-sulfonamide], for which the IC50 is 29.9 nM.
For the compound `Cn1c(C#N)ccc1-c1ccc(NC#N)cc1` [Example 28, [4-(5-cyano-1-methyl-1H-pyrrol-2-yl)-phenyl]cyanamide], the IC50 is 54.1 nM.
As to `CCc1cc(-c2ccc(C#N)n2C)ccc1NC#N` [Example 30, [4-(5-cyano-1-methyl-1H-pyrrol-2-yl)-2-ethylphenyl]cyanamide], the IC50 was roughly 300 nM.
For the compound `CCCc1cc(-c2ccc(C#N)n2C)ccc1NC#N` [Example 31, [4-(5-cyano-1-methyl-1H-pyrrol-2-yl)-2-propylphenyl] cyanamide], the IC50 is less than 300 nM.
With `CC(C)c1cc(-c2ccc(C#N)n2C)ccc1NC#N` [Example 32, [4-(5-cyano-1-methyl-1H-pyrrol-2-yl)-2-isopropylphenyl]cyanamide] the figure was less than 300 nM.
For `Cn1c(C#N)ccc1-c1ccc(NC#N)c(Cl)c1` [Example 33, [2-chloro-4-(5-cyano-1-methyl-1H-pyrrol-2-yl)phenyl]cyanamide], the IC50 stood at 897 nM.
Turning to `Cn1c(C#N)ccc1-c1ccc(NC#N)c(F)c1` [Example 34, [4-(5-cyano-1-methyl-1H-pyrrol-2-yl)-2-fluorophenyl]cyanamide], the IC50 is 670 nM.
